Measurements as given in PMC11397358, “Cytotoxic Activity of Novel GnRH Analogs Conjugated with Mitoxantrone in Ovarian Cancer Cells” (Molecules, 2024).

Assays:
human GnRH-R = target: T1, human GnRH-R (Homo sapiens, UniProt P30968); test: Calcium-based (fura-2) kinetic assay of GnRH-R agonism; format: cell-based; settings: HEK293 cells transiently transfected with human GnRH-R; fura-2 ratio, 96-well, Flexstation 3; experiments performed a minimum of three times; read-out: EC50 for increase in intracellular [Ca2+]
T1 construct: host or cells: HEK293 (ATCC CRL-1573)
T1 sequence (P30968 1-328): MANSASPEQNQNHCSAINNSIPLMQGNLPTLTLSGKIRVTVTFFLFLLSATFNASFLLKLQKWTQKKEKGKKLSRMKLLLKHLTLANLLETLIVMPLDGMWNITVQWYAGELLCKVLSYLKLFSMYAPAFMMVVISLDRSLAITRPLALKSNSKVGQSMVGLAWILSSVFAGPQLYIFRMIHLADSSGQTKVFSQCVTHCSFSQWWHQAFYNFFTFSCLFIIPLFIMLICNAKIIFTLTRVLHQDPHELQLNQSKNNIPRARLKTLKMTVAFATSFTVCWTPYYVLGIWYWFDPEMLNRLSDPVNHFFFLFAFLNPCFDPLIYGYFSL
Description: For this purpose, fura-2-based kinetic assays to monitor the [Ca^2+] were performed in real-time using suspensions of HEK293 cells transiently transfected with the human GnRH-R (Figure 2A–I).
HEK293 cells transfected with the human GnRH-R served as a platform with which to test for agonist actions of individual test compounds. These cells were loaded with the ratiometric Ca^2+ indicator fura-2 so that the change in intracellular [Ca^2+] in response to agonist stimulation could be monitored in real time in a 96-well format. For these assays, the individual test compounds were administered at the 100 s time point.
Two days post-transfection, the HEK293 cells were harvested via trypsinization to obtain single-cell suspensions that were plated at 80% density on rat tail collagen-coated 96-well Costar 3904 plates for loading with the ratiometric Ca^2+ indicator fura-2. Measurements of the intracellular [Ca^2+] were performed using a Flexstation 3 microplate reader (Molecular Devices, Sunnyvale, CA, USA). Briefly, test solutions containing GnRH-R agonists were administered to individual wells of a 96-well plate using the automated pipetting feature of the Flexstation under computer control. […] Emitted light was detected at 505/15 nm, and the ratio of emission light intensity due to excitation at 335/9 and 375/9 nm was calculated. […]

SKOV-3 cells [1] = test: Cell proliferation (MTT) assay; format: cell-based, human; settings: over time (days 2–4) and at various concentrations
Description: The antiproliferative effects of GnRH-mitoxantrone conjugates, Con-3, and Con-7, were evaluated using the SKOV-3 cells. The Con-3 and Con-7 conjugates decreased the proliferation rate of SKOV-3 cells in a dose-dependent manner on days 2, 3, and 4 (Figure 3A–C).
Figure 3 Antiproliferative activity of the GnRH analogs. Decrease in the proliferation rate of the SKOV3 cells after their treatment with increasing concentrations of Con-3, Con-7, Con-P1 or Con-P2 for 2 days (A), 3 days (B) and 4 days (C) at 37 °C. At the end of the incubation, the cells were further incubated with 0.5 mg/mL MTT for 4 h at room temperature and the formed purple formazan crystals were quantified by measuring absorbance at 594 nm. The means ± S.E (triplicate determination) are shown from a representative experiment performed 3 times with similar results. The proliferation rates of cells treated with 1 μΜ of GnRH analogs were used to plot the graph D which depicts the decrease in cell growth over the incubation time (D). Statistical analysis was performed using one-way ANOVA.
At the end of the incubation, the cells were further incubated with 0.5 mg/mL MTT for 4 h at room temperature and the formed purple formazan crystals were quantified by measuring absorbance at 594 nm. The means ± S.E (triplicate determination) are shown from a representative experiment performed 3 times with similar results. […] Statistical analysis was performed using one-way ANOVA.
SKOV-3 cells (kindly provided by Prof. Dimitrios Mavroudis, University of Crete) were seeded into 96-well plates at a density of 6000 cells/well, in triplicates, and incubated overnight in Dulbecco’s modified Eagle’s medium/F12 (DMEM/F12) (1:1), containing 3.15 g/L glucose and 10% bovine calf serum (BCS, HyClone), at 37 °C and 5% CO2. At the end of the incubation, the culture medium was replaced with a fresh one containing 3.15 g/L glucose and 2% BCS, with or without increasing concentrations of GnRH analogs or mitoxantrone (0.1 nM–10 µM), and the cells were further incubated at 37 °C and 5% CO2 for 2, 3 and 4 days. Subsequently, (3-(4,5-dimethylthiazol-2-yl)-2,5- diphenyl tetrazolium bromide) (MTT) was added at a final concentration of 0.5 mg/mL, and the mixtures were incubated for 4 h at room temperature in the dark, allowing the viable cells to reduce the MTT to formazan crystals. The supernatants were removed, and the purple formazan crystals were dissolved in isopropanol containing 4% HCl (100 μL/well) by mixing thoroughly for 30 min in the dark, before the quantification of the absorbance at 594 nm using a Dynatech MicroElisa reader (Chantilly, VA, USA). The percentage of the proliferation rate (% proliferation rate) treated with a GnRH analog was determined based on the following equation: % proliferation rate = (absorbance of cells treated with a GnRH analog/absorbance of untreated cells) × 100. The % viability of the untreated cells (control) was defined as 100%. The % viabilities were analyzed by nonlinear regression analysis, using Prism 8.0 (GraphPad Software, Prism 8.0, San Diego, CA, USA).

SKOV-3 cells [2] = test: Annexin V / propidium iodide apoptosis assay by flow cytometry; format: cell-based, human; settings: 1 μM, 2, 3 and 4 days; flow cytometry
Source text: We next evaluate the abilities of Con-3 and Con-7 at concentrations of 1 μΜ to induce cell death by determining the percentages of live, apoptotic and necrotic cells after treatment of SKOV-3 cells with the GnRH conjugates. As shown in Figure 5 and Figures S1–S3 on day 2, the majority of SKOV-3 cells were viable (Q4 quadrant), treated either with Con-3, Con-7 or mitoxantrone, whereas the percentage of apoptotic cells (late or early apoptotic) (Q1, Q2 quadrants) was only 10.1%, 10.87% and 13.1% after treatment with Con-3, Con-7 or mitoxantrone, respectively. […] Cell viability further decreased on day 4 with a concomitant increase in apoptosis. Specifically, the percentage of apoptotic cells was 53.5%, 59.6% and 54.3% after treatment with Con-3, Con-7 or mitoxantrone (Figure 5 and Figures S7–S9). In all phases, the percentage of the necrotic and late apoptotic cells (Q3 quadrant) was very small.
Figure 5 Determination of viability, apoptosis, or necrosis of SKOV-3 cells after their treatment with 1 μM Con-3, Con-7, or mitoxantrone for 2, 3, and 4 days at 37 °C. At the end of the incubation the cells were further incubated in binding buffer supplied by Biotium, (CF488A Apoptosis Detection kit) and analyzed on a flow cytometer (excitation 488 nm), in the FITC channel (filter 530 nm) for detection of the Annexin V-positive cellsand in the propidium iodide, or PI, channel (filter 616 nm) for detection of the PI-positive cells. The figures are from a representative experiment performed three times with similar results. A higher resolution of the images in Figure 5 is provided in the Supplementary Material (Figures S1–S9). TEXT PRINTED IN THE PICTURE: Con-3: Q3: 4,19 (Day 2); Q2: 7,12 (Day 2); Q4: 85,7 (Day 2); Q1: 2,98 (Day 2); Q3: 5,31 (Day3); Q2: 19,5 (Day3); Q4: 58,0 (Day3); Q1: 17,1 (Day3); Q3: 3,54 (Day4); Q2: 17,1 (Day4); Q4: 43,0 (Day4); Q1: 36,4 (Day4) | Con-7: Q3: 6,31 (Day 2); Q2: 7,74 (Day 2); Q4: 82,8 (Day 2); Q1: 3,13 (Day 2); Q3: 8,11 (Day3); Q2: 19,8 (Day3); Q4: 56,8 (Day3); Q1: 15,3 (Day3); Q3: 3,48 (Day4); Q2: 19,7 (Day4); Q4: 36,9 (Day4); Q1: 39,9 (Day4) | Mitoxantrone: Q3: 6,49 (Day 2); Q2: 9,40 (Day 2); Q4: 80,4 (Day 2); Q1: 3,67 (Day 2); Q3: 7,13 (Day3); Q2: 18,9 (Day3); Q4: 61,0 (Day3); Q1: 13,1 (Day3); Q3: 2,72 (Day4); Q2: 17,3 (Day4); Q4: 43,0 (Decimal sign as read) (Day4); Q1: 37,0 (Day4) DOUBTS OF THE COPYIST ABOUT THIS PICTURE: All quadrant values: the print is very small, and the decimal sign may be a comma or a point in every value / Con-3, Day 2, Q4: 85,7 or 86,7 / Con-3, Day 2, Q1: 2,98 or 2,96 / Con-3, Day3, Q3: 5,31 or 6,31 / Con-3, Day3, Q2: 19,5 or 19,6 / Con-3, Day3, Q4: 58,0 or 56,0 / Con-3, Day4, Q3: 3,54 or 3,64 / Con-3, Day4, Q1: 36,4 or 38,4 / Con-7, Day 2, Q3: 6,31 or 8,31 / Con-7, Day 2, Q4: 82,8 or 82,6 / Con-7, Day 2, Q1: 3,13 or 3,15 / Con-7, Day3, Q3: 8,11 or 6,11 / Con-7, Day3, Q2: 19,8 or 19,6 / Con-7, Day3, Q4: 56,8 or 58,8 / Con-7, Day3, Q1: 15,3 or 15,8 / Con-7, Day4, Q3: 3,48 or 3,46 / Con-7, Day4, Q4: 36,9 or 38,9 / Con-7, Day4, Q1: 39,9 or 38,9 / Mitoxantrone, Day 2, Q3: 6,49 or 8,49 / Mitoxantrone, Day 2, Q2: 9,40 or 8,40 / Mitoxantrone, Day 2, Q4: 80,4 or 60,4 / Mitoxantrone, Day 2, Q1: 3,67 or 3,87 / Mitoxantrone, Day3, Q2: 18,9 or 16,9 / Mitoxantrone, Day3, Q4: 61,0 or 81,0 / Mitoxantrone, Day3, Q1: 13,1 or 15,1 […]
SKOV-3 cells were seeded into 12-well plates at a density of 50,000 cells/well and incubated overnight in DMEM/F12 (1:1) containing 3.15 g/L glucose and 10% BCS, at 37 °C and 5% CO2. At the end of the incubation, the culture medium was replaced with a fresh one containing 3.15 g/L glucose and 2% BCS, with or without GnRH analogs or mitoxantrone at a concentration of 1 μΜ, and the cells were further incubated at 37 °C and 5% CO2 for 2, 3 and 4 days. […]

Compound | EC50 (human GnRH-R) [nM] | effect on proliferation of SKOV-3 cells, in words (SKOV-3 cells [1]) | effect on viability of SKOV-3 cells, in words (SKOV-3 cells [2])
CCNC(=O)[C@@H]1CCCN1C(=O)[C@H](CCCNC(=N)N)NC(=O)[C@H](CC(C)C)NC(=O)[C@@H](CS)NC(=O)[C@H](Cc1ccc(O)cc1)NC(=O)[C@H](CO)NC(=O)[C@H](Cc1c[nH]c2ccccc12)NC(=O)[C@H](Cc1c[nH]cn1)NC(=O)[C@@H]1CCC(=O)N1 [Con-P2] | 0.67 | – | –
CCNC(=O)[C@@H]1CCCN1C(=O)[C@H](CCCNC(=N)N)NC(=O)[C@H](CC(C)C)NC(=O)[C@@H](CCCCN)NC(=O)[C@H](Cc1ccc(O)cc1)NC(=O)[C@H](CO)NC(=O)[C@H](Cc1c[nH]c2ccccc12)NC(=O)[C@H](Cc1c[nH]cn1)NC(=O)[C@@H]1CCC(=O)N1 [Con-P1] | – | did not affect the proliferation of SKOV-3 cells | did not affect the viability of SKOV-3 cells
